The source of these data is US9957274B2, “Indane inhibitors of EED and methods of their use” (AbbVie Inc., priority 2016, dated 2018).

Read-outs that look alike come from different tables or passages of the source.

The target in one assay is EED (Homo sapiens, UniProt O75530). The assay can be described thus: EED TR-FRET Binding Assay (modified LanthaScreen competition assay). Put shortly:
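Competition binding in a modified LanthaScreen format, in 20 mM Tris-HCl pH 7.5, 200 mM NaCl, 0.01% Tween-20, 10 uM DTT and 0.05% BSA. Reactions ran 1 hour at 25° C before TR-FRET detection.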
Background: Time-resolved FRET reads energy transfer from a long-lived donor to a nearby acceptor.

For another assay, the system named is Pfeiffer cells. The experiment in a line: CTG cell viability assay (CellTiter-Glo). Conditions: Homo sapiens, 240 h. The assay is classed as cell-based. On the procedure:
1,000 cells were plated into each well of 96-well Corning CellBing cell culture plates and incubated overnight at 37° C. in a humidified CO2 incubator. […] The cell culture plates were then incubated for 10 more days. CTG cell viability assay was performed on the cell culture samples by using CellTiter-Glo® Luminescent Cell Viability Assay Kit (Promega).
(In general: In ATP-based viability assays light output follows the ATP content of the culture.)

The test system of a further assay is H3K27me3 in G401 cells. The experiment in a line: H3K27me3 AlphaLISA assay in G401 cells. The format is cell-based. Conditions: Homo sapiens, G-401, 144 h, 6 days with compound. For orientation: Alpha assays give light when donor and acceptor beads are brought close together.
Assay [1] deals with H3K27me3 in OCILY19 cells. The experiment in a line: H3K27me3 AlphaLISA assay in OCILY19 cells. The format is cell-based. As to conditions: Homo sapiens, OCI-LY19, 144 h, 6 days with compound, read-out: OCILY-19 IC50. On the procedure:
5,000 cells were plated into each well of 96-well Corning CellBing cell culture plates and incubated overnight at 37° C. in a humidified CO2 incubator. […] The cell culture plates were then incubated for 6 more days. H3K27me3 AlphaLISA assay was performed on the cell culture samples by using AlphaLISAR® H3K27me3 Cellular Detection Kit (PerkinElmer) and 96-well white half-area plates (PerkinElmer).

[2] abbreviates: Pfeiffer cells, 10 days with compound, CellTiter-Glo, read-out: Cell Proliferation IC50.

Chain of EED (O75530 whole entry): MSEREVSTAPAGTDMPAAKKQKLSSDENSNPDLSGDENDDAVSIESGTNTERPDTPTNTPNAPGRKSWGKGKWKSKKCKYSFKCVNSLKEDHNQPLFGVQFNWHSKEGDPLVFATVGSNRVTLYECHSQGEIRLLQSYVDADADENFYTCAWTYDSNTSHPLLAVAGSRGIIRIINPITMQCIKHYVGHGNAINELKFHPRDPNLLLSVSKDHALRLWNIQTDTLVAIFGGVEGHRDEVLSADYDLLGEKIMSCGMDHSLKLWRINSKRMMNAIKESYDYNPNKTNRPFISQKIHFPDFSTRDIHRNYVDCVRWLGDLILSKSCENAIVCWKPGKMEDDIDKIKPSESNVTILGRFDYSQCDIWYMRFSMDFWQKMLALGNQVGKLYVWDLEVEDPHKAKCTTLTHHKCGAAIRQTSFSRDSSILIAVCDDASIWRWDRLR

For `CC(=O)N1CCN(c2ccc([C@H]3CN([C@H]4CCc5cccc(F)c54)C[C@@H]3N(C)C)cc2)CC1` [Example 45, 1-[4-(4-{(3S,4R)-4-(dimethylamino)-1-[(1S)-7-fluoro-2,3-dihydro-1H-inden-1-yl]pyrrolidin-3-yl}phenyl)piperazin-1-yl]ethan-1-one], the IC50 at EED turned out to be 0.000303 µM; in the assay with Pfeiffer cells (Pfeiffer, read-out: Cell Proliferation IC50 (uM)), 0.0284 µM; in the assay on H3K27me3 in G401 cells it was 0.0311 µM; in assay [1], 0.0433 µM.

Turning to `CN(C)[C@H]1CN(C2CCc3cccc(F)c32)C[C@@H]1c1cn(C)c2c(C(=O)N3CC(F)C3)cccc12` (stereo partly drawn) [Example 102, {3-[(3S,4R)-4-(dimethylamino)-1-(7-fluoro-2,3-dihydro-1H-inden-1-yl)pyrrolidin-3-yl]-1-methyl-1H-indol-7-yl}(3-fluoroazetidin-1-yl)methanone], the IC50 was 0.000335 µM at EED, 0.0736 µM with Pfeiffer cells (setting [2]), 0.0407 µM in the assay with H3K27me3 in G401 cells and 0.101 µM in assay [1].

Take `CN(C)[C@H]1CN(C2CCc3cccc(F)c32)C[C@@H]1c1cn(C)c2c(C(=O)N3CC(O)C3)cccc12` (stereo partly drawn) [Example 105, {3-[(3S,4R)-4-(dimethylamino)-1-(7-fluoro-2,3-dihydro-1H-inden-1-yl)pyrrolidin-3-yl]-1-methyl-1H-indol-7-yl}(3-hydroxyazetidin-1-yl)methanone]: the IC50 on EED was 0.000347 µM; with Pfeiffer cells (setting [2]), 0.039 µM; in the assay with H3K27me3 in G401 cells, 0.0564 µM; in assay [1] it was 0.0271 µM.

Turning to `CN(C)[C@H]1CN(C2CCc3cccc(F)c32)C[C@@H]1c1cn(C)c2c(C(=O)N3CCN(S(=O)(=O)N4CCC4)CC3)cccc12` (stereo partly drawn) [Example 132, [4-(azetidine-1-sulfonyl)piperazin-1-yl]{3-[(3S,4R)-4-(dimethylamino)-1-(7-fluoro-2,3-dihydro-1H-inden-1-yl)pyrrolidin-3-yl]-1-methyl-1H-indol-7-yl}methanone], the IC50 on EED amounted to 0.00144 µM; in the assay with Pfeiffer cells (setting [2]), 0.0943 µM; in the assay with H3K27me3 in G401 cells it was 0.0633 µM; in assay [1], 0.162 µM.

Take `CN(C)[C@H]1CN(C2CCc3cccc(F)c32)C[C@@H]1c1cn(C)c2c(C(=O)N3CCN(S(=O)(=O)N4CC(C#N)C4)CC3)cccc12` (stereo partly drawn) [Example 133, 1-(4-{3-[(3S,4R)-4-(dimethylamino)-1-(7-fluoro-2,3-dihydro-1H-inden-1-yl)pyrrolidin-3-yl]-1-methyl-1H-indole-7-carbonyl}piperazine-1-sulfonyl)azetidine-3-carbonitrile]: the IC50 is 0.00145 µM at EED, 0.133 µM in the assay on Pfeiffer cells (setting [2]), 0.0615 µM in the assay with H3K27me3 in G401 cells and 0.206 µM in assay [1].
